In patent US4327097A, “Novel penicillins” (Toyama Chemical Co., Ltd., priority 1974, dated 1982):
In brackets after ≈: the same amount, converted by molar mass.

What was measured:
Type in all cases: cell-based
Proteus morganii = experiment: MIC against clinical isolates; settings: Table 6-5, clinical isolate; unit assumed
Proteus mirabilis = experiment: MIC against clinical isolates; settings: Table 6-5, clinical isolate; unit assumed
Klebsiella pneumoniae [1] = experiment: MIC against clinical isolates; settings: unit assumed; for MIC Klebsiella pneumoniae GN 917 / MIC Klebsiella pneumoniae GN 4081: Table 6-4, clinical isolate
Pseudomonas aeruginosa = experiment: MIC against clinical isolates; settings: unit assumed; for MIC Pseudomonas aeruginosa GN: strain number not given; for MIC Pseudomonas aeruginosa S-1: Table 6-4, clinical isolate
Proteus rettgeri = experiment: MIC against clinical isolates; settings: unit assumed
Proteus vulgaris = experiment: MIC against clinical isolates; settings: Table 6-5, clinical isolate; unit assumed
Staphylococcus aureus = experiment: MIC against clinical isolates; settings: unit assumed
Klebsiella pneumoniae [2] = experiment: MIC, plate method, standard strains; settings: unit assumed
Summary of the method: (§1)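 MIC read as the lowest inhibitory concentration on Heart infusion agar plates buffered to pH 7.4, each spotted with 10^4 cells drawn from a 10^6 cells/ml suspension.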

[3] = system: Pseudomonas aeruginosa I.F.O.; experiment: MIC, plate method, standard strains; settings: Table 4, standard strain; unit assumed
Summary of the method: as §1

[4] = system: Staphylococcus aureus 209p; experiment: MIC, plate method, standard strains; settings: unit assumed
Summary of the method: as §1

Proteus vulgaris 3027 = experiment: MIC, plate method, standard strains; settings: unit assumed
Summary of the method: as §1

Escherichia coli NIHJ = experiment: MIC, plate method, standard strains; settings: unit assumed; for MIC Escherichia coli NIHJ: Table 4, standard strain
Summary of the method: as §1

Escherichia coli = experiment: MIC against clinical isolates; settings: unit assumed
Shigella flexneri = experiment: MIC against clinical isolates; settings: Table 5-5, clinical isolate; unit assumed
Method: (§2) The minimum inhibitory concentration (MIC) was determined by the plate method disclosed in "Chemotherapy" (Japan), Vol. 16, (1968), pages 98-99. The culture medium used was a Heart infusion agar (pH 7.4). The number of the cells per plate used in the inoculum was 10^4 (10^6 cells/ml).
(§3) MIC was determined in the same manner as in the preceding paragraph (1).

Shigella sonnei = experiment: MIC against clinical isolates; settings: Table 5-5, clinical isolate; unit assumed
Method: as §2, §3

CCN1CCN(C(=O)NC(C(=O)NC2C(=O)N3C(C(=O)O)=C(CSc4nnnn4CC)CSC23)c2ccccc2)C(=O)C1=O (single isomer, unassigned) [Compound No. 77]
MIC Proteus morganii (Proteus morganii): 1.56 µg/mL (≈ 2.42 µM)
MIC Proteus mirabilis (Proteus mirabilis): 1.56 µg/mL (≈ 2.42 µM)
MIC Klebsiella pneumoniae GN 917 (Klebsiella pneumoniae [1]): 1.56 µg/mL (≈ 2.42 µM)
MIC Klebsiella pneumoniae GN 4081 (Klebsiella pneumoniae [1]): 3.13 µg/mL (≈ 4.86 µM)
MIC Pseudomonas aeruginosa GN (Pseudomonas aeruginosa; Table 6-3, clinical isolate): 25 µg/mL (≈ 38.8 µM)
MIC Pseudomonas aeruginosa GN4 (Pseudomonas aeruginosa; Table 6-3, clinical isolate): 25 µg/mL (≈ 38.8 µM)
MIC Pseudomonas aeruginosa GN 82 (Pseudomonas aeruginosa; Table 6-3, clinical isolate): 25 µg/mL (≈ 38.8 µM)
MIC Pseudomonas aeruginosa GN 221 (Pseudomonas aeruginosa; Table 6-3, clinical isolate): 12.5 µg/mL (≈ 19.4 µM)
MIC Pseudomonas aeruginosa GN 376 (Pseudomonas aeruginosa; Table 6-3, clinical isolate): 25 µg/mL (≈ 38.8 µM)
MIC Pseudomonas aeruginosa GN 1035 (Pseudomonas aeruginosa; Table 6-3, clinical isolate): 50 µg/mL (≈ 77.7 µM)
MIC Pseudomonas aeruginosa GN 1091 (Pseudomonas aeruginosa; Table 6-3, clinical isolate): 25 µg/mL (≈ 38.8 µM)
MIC Pseudomonas aeruginosa GN 2565 (Pseudomonas aeruginosa; Table 6-3, clinical isolate): 50 µg/mL (≈ 77.7 µM)
MIC Pseudomonas aeruginosa S-1 (Pseudomonas aeruginosa): 50 µg/mL (≈ 77.7 µM)
MIC Proteus rettgeri (Proteus rettgeri; Table 6-5, clinical isolate): 1.56 µg/mL (≈ 2.42 µM)
MIC Proteus vulgaris (Proteus vulgaris): 0.78 µg/mL (≈ 1.21 µM)
MIC Staphylococcus aureus F-1 (Staphylococcus aureus; Table 6-1, clinical isolate): 1.56 µg/mL (≈ 2.42 µM)
MIC Staphylococcus aureus MS 8588 (Staphylococcus aureus; Table 6-1, clinical isolate): 1.56 µg/mL (≈ 2.42 µM)
MIC Staphylococcus aureus MS 8596 (Staphylococcus aureus; Table 6-1, clinical isolate): 1.56 µg/mL (≈ 2.42 µM)
MIC Staphylococcus aureus MS 8619 (Staphylococcus aureus; Table 6-1, clinical isolate): 1.56 µg/mL (≈ 2.42 µM)
MIC Staphylococcus aureus MS 8684 (Staphylococcus aureus; Table 6-1, clinical isolate): 1.56 µg/mL (≈ 2.42 µM)
MIC Klebsiella pneumoniae (Klebsiella pneumoniae [2]; Table 4, standard strain): 0.4 µg/mL (≈ 0.621 µM)
MIC Pseudomonas aeruginosa I.F.O. [3]: 25 µg/mL (≈ 38.8 µM)
MIC Staphylococcus aureus 209p ([4]; Table 4, standard strain): 1.57 µg/mL (≈ 2.44 µM)
MIC Proteus vulgaris 3027 (Proteus vulgaris 3027; Table 4, standard strain): 1.57 µg/mL (≈ 2.44 µM)
MIC Escherichia coli NIHJ (Escherichia coli NIHJ): < 0.1 µg/mL
MIC Escherichia coli GN 3435 (Escherichia coli; Table 6-2, clinical isolate): 1.56 µg/mL (≈ 2.42 µM)
MIC Escherichia coli GN 3452 (Escherichia coli; Table 6-2, clinical isolate): 1.56 µg/mL (≈ 2.42 µM)
MIC Escherichia coli GN 3465 (Escherichia coli; Table 6-2, clinical isolate): 6.25 µg/mL (≈ 9.71 µM)
MIC Escherichia coli K-2 (Escherichia coli; Table 6-2, clinical isolate): 3.13 µg/mL (≈ 4.86 µM)
MIC Escherichia coli K-4 (Escherichia coli; Table 6-2, clinical isolate): 1.56 µg/mL (≈ 2.42 µM)

CCN1CCN(C(=O)NC(C(=O)NC2C(=O)N3C(C(=O)O)=C(CSc4nnnn4CC)CSC23)c2ccc(O)cc2)C(=O)C1=O (single isomer, unassigned) [Compound No. 78]
MIC Proteus morganii (Proteus morganii): 1.56 µg/mL (≈ 2.36 µM)
MIC Proteus mirabilis (Proteus mirabilis): 1.56 µg/mL (≈ 2.36 µM)
MIC Klebsiella pneumoniae GN 917 (Klebsiella pneumoniae [1]): 0.39 µg/mL (≈ 0.591 µM)
MIC Klebsiella pneumoniae GN 4081 (Klebsiella pneumoniae [1]): 3.13 µg/mL (≈ 4.74 µM)
MIC Pseudomonas aeruginosa GN (Pseudomonas aeruginosa; Table 6-3, clinical isolate): 12.5 µg/mL (≈ 18.9 µM)
MIC Pseudomonas aeruginosa GN4 (Pseudomonas aeruginosa; Table 6-3, clinical isolate): 25 µg/mL (≈ 37.9 µM)
MIC Pseudomonas aeruginosa GN 82 (Pseudomonas aeruginosa; Table 6-3, clinical isolate): 12.5 µg/mL (≈ 18.9 µM)
MIC Pseudomonas aeruginosa GN 221 (Pseudomonas aeruginosa; Table 6-3, clinical isolate): 6.25 µg/mL (≈ 9.47 µM)
MIC Pseudomonas aeruginosa GN 376 (Pseudomonas aeruginosa; Table 6-3, clinical isolate): 12.5 µg/mL (≈ 18.9 µM)
MIC Pseudomonas aeruginosa GN 1035 (Pseudomonas aeruginosa; Table 6-3, clinical isolate): 25 µg/mL (≈ 37.9 µM)
MIC Pseudomonas aeruginosa GN 1091 (Pseudomonas aeruginosa; Table 6-3, clinical isolate): 25 µg/mL (≈ 37.9 µM)
MIC Pseudomonas aeruginosa GN 2565 (Pseudomonas aeruginosa; Table 6-3, clinical isolate): 12.5 µg/mL (≈ 18.9 µM)
MIC Pseudomonas aeruginosa S-1 (Pseudomonas aeruginosa): 25 µg/mL (≈ 37.9 µM)
MIC Proteus rettgeri (Proteus rettgeri; Table 6-5, clinical isolate): 1.56 µg/mL (≈ 2.36 µM)
MIC Proteus vulgaris (Proteus vulgaris): 0.39 µg/mL (≈ 0.591 µM)
MIC Staphylococcus aureus F-1 (Staphylococcus aureus; Table 6-1, clinical isolate): 3.13 µg/mL (≈ 4.74 µM)
MIC Staphylococcus aureus MS 8588 (Staphylococcus aureus; Table 6-1, clinical isolate): 3.13 µg/mL (≈ 4.74 µM)
MIC Staphylococcus aureus MS 8596 (Staphylococcus aureus; Table 6-1, clinical isolate): 3.13 µg/mL (≈ 4.74 µM)
MIC Staphylococcus aureus MS 8619 (Staphylococcus aureus; Table 6-1, clinical isolate): 1.56 µg/mL (≈ 2.36 µM)
MIC Staphylococcus aureus MS 8684 (Staphylococcus aureus; Table 6-1, clinical isolate): 1.56 µg/mL (≈ 2.36 µM)
MIC Klebsiella pneumoniae (Klebsiella pneumoniae [2]; Table 4, standard strain): 0.2 µg/mL (≈ 0.303 µM)
MIC Pseudomonas aeruginosa I.F.O. [3]: 12.5 µg/mL (≈ 18.9 µM)
MIC Staphylococcus aureus 209p ([4]; Table 4, standard strain): 3.13 µg/mL (≈ 4.74 µM)
MIC Proteus vulgaris 3027 (Proteus vulgaris 3027; Table 4, standard strain): 0.79 µg/mL (≈ 1.2 µM)
MIC Escherichia coli NIHJ (Escherichia coli NIHJ): < 0.1 µg/mL
MIC Escherichia coli GN 3435 (Escherichia coli; Table 6-2, clinical isolate): 0.39 µg/mL (≈ 0.591 µM)
MIC Escherichia coli GN 3452 (Escherichia coli; Table 6-2, clinical isolate): 0.39 µg/mL (≈ 0.591 µM)
MIC Escherichia coli GN 3465 (Escherichia coli; Table 6-2, clinical isolate): 1.56 µg/mL (≈ 2.36 µM)
MIC Escherichia coli K-2 (Escherichia coli; Table 6-2, clinical isolate): 0.78 µg/mL (≈ 1.18 µM)
MIC Escherichia coli K-4 (Escherichia coli; Table 6-2, clinical isolate): 0.39 µg/mL (≈ 0.591 µM)

CCCCCCCCN1CCN(C(=O)N[C@@H](C(=O)N[C@@H]2C(=O)N3[C@@H]2SC(C)(C)[C@@H]3C(=O)O)c2ccccc2)C(=O)C1 [Compound 16]
MIC Shigella flexneri JS 11215 (Shigella flexneri): 6.25 µg/mL (≈ 10.6 µM)
MIC Shigella flexneri JS 11839 (Shigella flexneri): 0.79 µg/mL (≈ 1.34 µM)
MIC Shigella sonnei JS 11232 (Shigella sonnei): 6.25 µg/mL (≈ 10.6 µM)
MIC Shigella sonnei JS 11755 (Shigella sonnei): 1.57 µg/mL (≈ 2.67 µM)
MIC Klebsiella pneumoniae GN 3850 (Klebsiella pneumoniae [1]; Table 5-4, clinical isolate): 3.13 µg/mL (≈ 5.33 µM)
MIC Pseudomonas aeruginosa GN 82 (Pseudomonas aeruginosa; Table 5-3, clinical isolate): 6.25 µg/mL (≈ 10.6 µM)
MIC Pseudomonas aeruginosa GN 2987 (Pseudomonas aeruginosa; Table 5-3, clinical isolate): 3.13 µg/mL (≈ 5.33 µM)
MIC Proteus rettgeri (Proteus rettgeri; Table 5-6, clinical isolate): 6.25 µg/mL (≈ 10.6 µM)
MIC Staphylococcus aureus F-1 (Staphylococcus aureus; Table 5-1, clinical isolate): 6.25 µg/mL (≈ 10.6 µM)
MIC Staphylococcus aureus F-4 (Staphylococcus aureus; Table 5-1, clinical isolate): 6.25 µg/mL (≈ 10.6 µM)
MIC Staphylococcus aureus MS 8588 (Staphylococcus aureus; Table 5-1, clinical isolate): 3.13 µg/mL (≈ 5.33 µM)
MIC Staphylococcus aureus MS 8596 (Staphylococcus aureus; Table 5-1, clinical isolate): 3.13 µg/mL (≈ 5.33 µM)
MIC Staphylococcus aureus MS 8684 (Staphylococcus aureus; Table 5-1, clinical isolate): 3.13 µg/mL (≈ 5.33 µM)
MIC Staphylococcus aureus MS 8713 (Staphylococcus aureus; Table 5-1, clinical isolate): 3.13 µg/mL (≈ 5.33 µM)
MIC Klebsiella pneumoniae (Klebsiella pneumoniae [2]; Table 3, standard strain): 1.57 µg/mL (≈ 2.67 µM)
MIC Staphylococcus aureus 209p ([4]; Table 3, standard strain, Heart infusion agar pH 7.4): < 1.57 µg/mL
MIC Proteus vulgaris 3027 (Proteus vulgaris 3027; Table 3, standard strain): < 1.57 µg/mL
MIC Esche--richin coil NIHJ (Escherichia coli NIHJ; Table 3, standard strain): < 1.57 µg/mL
MIC Escherichia coli GN 3435 (Escherichia coli; Table 5-2, clinical isolate): 1.57 µg/mL (≈ 2.67 µM)
MIC Escherichia coli GN 3452 (Escherichia coli; Table 5-2, clinical isolate): 1.57 µg/mL (≈ 2.67 µM)
MIC Escherichia coli GN 3481 (Escherichia coli; Table 5-2, clinical isolate): 3.13 µg/mL (≈ 5.33 µM)
MIC Escherichia coli K-1 (Escherichia coli; Table 5-2, clinical isolate): 1.57 µg/mL (≈ 2.67 µM)
MIC Escherichia coli K-2 (Escherichia coli; Table 5-2, clinical isolate): 3.13 µg/mL (≈ 5.33 µM)
MIC Escherichia coli K-4 (Escherichia coli; Table 5-2, clinical isolate): 3.13 µg/mL (≈ 5.33 µM)
